One test addresses T1, E-selectin (Homo sapiens, UniProt P16581).
T1 construct: stably transfected with full-length cDNA encoding human E-selectin; expressed in transfected cells
T1 sequence (P16581 22-610): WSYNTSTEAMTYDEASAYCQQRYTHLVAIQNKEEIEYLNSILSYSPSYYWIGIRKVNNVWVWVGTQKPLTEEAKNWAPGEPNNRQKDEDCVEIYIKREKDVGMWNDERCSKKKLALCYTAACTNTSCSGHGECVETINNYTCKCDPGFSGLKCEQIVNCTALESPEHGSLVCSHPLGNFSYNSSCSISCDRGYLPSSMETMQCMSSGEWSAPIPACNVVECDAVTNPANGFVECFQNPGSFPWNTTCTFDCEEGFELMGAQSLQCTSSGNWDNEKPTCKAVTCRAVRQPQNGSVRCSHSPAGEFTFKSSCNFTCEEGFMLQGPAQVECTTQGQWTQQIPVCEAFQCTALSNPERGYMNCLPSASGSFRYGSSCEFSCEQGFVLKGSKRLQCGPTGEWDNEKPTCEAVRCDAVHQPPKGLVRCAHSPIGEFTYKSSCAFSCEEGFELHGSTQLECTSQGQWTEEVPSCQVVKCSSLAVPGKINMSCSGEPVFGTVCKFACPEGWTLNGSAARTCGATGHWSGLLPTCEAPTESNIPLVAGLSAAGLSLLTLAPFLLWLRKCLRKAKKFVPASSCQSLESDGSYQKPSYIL
As to the kind of experiment: Blot rolling assay with CHO-E cells. It counts as cell-based. To be noted: immunoprecipitated CD44 on Western blot; 3.8 dynes/cm^2. Here is the method:
The blot rolling assay was performed as previously described (Dimitroff et al., 2000). Briefly, CHO-E, CHO—P or CHO-Mock transfectants were isolated as described above, washed twice in HBSS and suspended at 10^7/ml in HBSS/10 mM HEPES/2mMCaCl2 (H/H/Ca++)/10% glycerol. Western blots of HPC membrane preparations stained with HECA-452 were rendered transparent by incubating them in H/H/Ca++/10% glycerol. The blots were then placed in the parallel-plate flow chamber, and CHO transfectants (2×10^6/ml) were perfused into the chamber. After allowing the cells to come in contact with the blotting membrane, the flow rate was adjusted to exert a shear stress of 3.8 dynes/cm^2. The viscosity of 10% glycerol adhesion assay medium was considered in the calculation of shear stress values. The number of cells rolling on and between each immunostained banding region was quantified under 100× magnification within each field of view on the video monitor using molecular weight markers (Kaleidoscope Molecular Weight Markers, Bio-Rad Lab.; See Blue® from Novex, Inc.) as guides to help align and visualize the apparent molecular weights of the proteins of interest. A minimum of 3 experiments was performed and results were expressed as the mean±SD of cell rolling/field at 100× magnification.
Background: A western blot detects proteins with antibodies after separation by electrophoresis.

Test [1] relates to L-selectin. As to the kind of experiment: Stamper-Woodruff assay of immunoprecipitated KG1a CD44 (Example 7). It counts as cell-based. Particulars: immunoprecipitate spotted onto glass slides.
Text: To further analyze the L-selectin ligand activity of CD44, we performed Stamper-Woodruff assays using immunoprecipitated CD44 or isotype control (rat lgG)
immunoprecipitates of KG1 a cells that was spotted onto glass slides as described (Sackstein, R. & Dimitroff, C. J. (2000). Blood. 96, 2765-2774).
Test [2] has as its system L-selectin. As to the kind of experiment: Stamper-Woodruff assay, lymphocyte adherence to immunoprecipitated CD44 and PSGL-1. It counts as cell-based, rat. Particulars: equimolar amounts (0.75 μg CD44, 1 μg PSGL-1); 80 rpm.
Test [3] addresses T2, L-selectin (Rattus norvegicus, UniProt P30836).
T2 construct: L-selectin naturally expressed on leukocytes; endogenous in cells; host or cells: lymphocytes (rat thoracic duct lymphocytes; human PBMC also prepared)
T2 sequence (P30836 39-372): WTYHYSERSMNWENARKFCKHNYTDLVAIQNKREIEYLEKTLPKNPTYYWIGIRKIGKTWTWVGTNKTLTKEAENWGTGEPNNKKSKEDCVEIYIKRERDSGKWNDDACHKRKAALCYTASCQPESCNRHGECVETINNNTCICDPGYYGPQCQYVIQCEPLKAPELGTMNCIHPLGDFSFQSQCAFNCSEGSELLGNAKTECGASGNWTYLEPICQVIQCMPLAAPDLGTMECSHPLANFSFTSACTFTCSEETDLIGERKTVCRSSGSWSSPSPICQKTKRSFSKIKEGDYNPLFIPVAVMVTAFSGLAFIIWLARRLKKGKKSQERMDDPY
The description is as above. It counts as cell-based. Particulars: 80 rpm.

For test [4], the system named is L-selectin. The test is described as above. The format is cell-based, rat. To be noted: equimolar amounts; from 40 to 100 rpm.
For test [5], the system named is L-selectin. As to the kind of experiment: Blot rolling assay with L-selectin-expressing lymphocytes. The format is cell-based. Particulars: 2.3 dynes/cm^2. The protocol: L-selectin-expressing lymphocytes were isolated as previously described (Oxley, S. M. & Sackstein, R. (1994). Blood. 84:3299-3306; Sackstein, R., Fu, L. and Allen, K. L. (1997) Blood. 89:2773-2781), washed twice in HBSS and suspended at 2×10^7/ml in HBSS/10 mM HEPES/2mMCaCl2 (H/H/Ca^++)/10% glycerol. Cell lysate material is separated by SDS-PAGE and transferred to PVDF under standard blotting conditions. Western blots of KG1a membrane preparations stained with HECA-452, A3D8 or Hermes-1 were rendered transparent by incubating them in H/H/Ca^++/10% glycerol. To study L-selectin-mediated adhesive interactions, the blots were placed in the parallel plate flow chamber and lymphocytes were perfused into the chamber at a shear force of 2.3 dynes/cm^2 and cellular adhesive interactions are observed by video microscopy and analyzed in real time.
The number of lymphocytes rolling on and between each immunostained banding region was quantified from five independent fields under 200× magnification on the video monitor using molecular weight markers as guides to help align and visualize the proteins of interest. A minimum of 3 experiments were performed, and results were expressed as the mean of cell rolling/field.

Take “KG1a CD44: glycoform of CD44 with HECA-452 reactive sialylated, fucosylated N-glycans, immunoprecipitated from KG1a cells with Hermes-1”: the “E-selectin ligand activity (CHO-E cell rolling) in blot rolling assay” value in the test with E-selectin is “possessed E-selectin ligand activity”. Also, the L-selectin-mediated lymphocyte adherence in the test on L-selectin [1] worked out at 362±15 bound cells/field. The “fold greater lymphocyte binding compared with PSGL-1” value in the test on L-selectin [2] is “up to 10 fold”. In the test with L-selectin [3] (0.75 μg/spot (PSGL-1 1 μg/spot), 4° C., 100× mag.), the “Mean Number of Bound Lymphocytes” value turned out to be 357.8. In addition, the “fold higher mean number of lymphocytes bound to CD44 than to PSGL-1” value with L-selectin [3] (p<0.001) is listed as 3 fold. For the same substance, the “fold higher lymphocyte adherence compared with PSGL-1” value in the test with L-selectin [4] is 5- to 10 fold. In the test with L-selectin [5], the “L-selectin ligand activity (lymphocyte tethering and rolling) in blot rolling assay” value is “supported L-selectin ligand interactions”.
